Where two headings read alike, the source gives them in different places.
Assay: Preliminary pharmacokinetics in trial 1403-0001 (Arm A D1 q3w, Arm B D1 D8 q4w)
Type: in vivo, human
Conditions: for Vd/F / half-life / Tmax / AUC(0-inf) / Cmax: human, plasma, oral
Description: Preliminary PK data were available from the first 45 treated patients in study 1403-0001. The exploratory PK analysis is based on planned blood sampling time-points and the results are subject to change because not all samples from these patients have been analyzed yet. Therefore, AUCs may be incomplete. In addition, information on the absorption, distribution, and elimination of the MDM2 antagonist of formula I are descriptive given the limited exploratory PK results available up to this point in time.
Consequently the preliminary PK results support the dose selection of 45 mg (and alternatively even of 30 mg) combined with the once in three weeks (D1 q3w) dose regimen. The tmax of the MDM2 antagonist of formula I is generally between 4 and 6 hours after tablet intake.

Cc1c(C(=O)O)ccc2c3n(nc12)[C@@H]1[C@H](C3)N(CC2CC2)[C@@]2(C(=O)Nc3cc(Cl)ccc32)[C@H]1c1cccc(Cl)c1F [MDM2-antagonist of formula I, (2′S,3′S,3a'S,10a'S)-6-chloro-3′-(3-chloro-2-fluorophenyl)-1′-(cyclopropylmethyl)-6′-methyl-2-oxo-1,2,3′,3a′,10′,10a′-hexahydro-1′H-spiro[indole-3,2′-pyrrolo[2′,3′:4,5]pyrrolo[1,2-b]indazole]-7′-carboxylic acid]
Vd/F (10 mg, Day 1, D1 D8 q4w (Arm B), gMean, N=3, read-out: Vz/F): 24.5 L
half-life (10 mg, Day 1, D1 D8 q4w (Arm B), gMean, N=3, read-out: t1/2 (converted)): 52.4 h
Tmax (10 mg, Day 1, D1 D8 q4w (Arm B), median, N=3, read-out: tmax): 6 h
AUC(0-inf) (10 mg, Day 8, D1 D8 q4w (Arm B), gMean, N=3, read-out: AUC0-∞): 48.4 µM·h
Cmax (10 mg, Day 8, D1 D8 q4w (Arm B), gMean, N=3, read-out: Cmax): 714 nM
Vd/F (10 mg, Day 8, D1 D8 q4w (Arm B), gMean, N=3, read-out: Vz/F): 23.1 L
half-life (10 mg, Day 8, D1 D8 q4w (Arm B), gMean, N=3, read-out: t1/2 (converted)): 45.9 h
Tmax (10 mg, Day 8, D1 D8 q4w (Arm B), median, N=3, read-out: tmax): 5 h
AUC(0-inf) (15 mg, Day 1, D1 D8 q4w (Arm B), gMean, N=3, read-out: AUC0-∞): 37.8 µM·h
Cmax (15 mg, Day 1, D1 D8 q4w (Arm B), gMean, N=3, read-out: Cmax): 831 nM
Vd/F (15 mg, Day 1, D1 D8 q4w (Arm B), gMean, N=3, read-out: Vz/F): 32.3 L
half-life (15 mg, Day 1, D1 D8 q4w (Arm B), gMean, N=3, read-out: t1/2 (converted)): 33.4 h
Tmax (15 mg, Day 1, D1 D8 q4w (Arm B), median, N=3, read-out: tmax): 5 h
AUC(0-inf) (15 mg, Day 8, D1 D8 q4w (Arm B), gMean, N=2, read-out: AUC0-∞): 25.8 µM·h
Vd/F (15 mg, Day 8, D1 D8 q4w (Arm B), gMean, N=2, read-out: Vz/F): 37.3 L
half-life (15 mg, Day 8, D1 D8 q4w (Arm B), gMean, N=2, read-out: t1/2 (converted)): 26.3 h
Cmax (15 mg, Day 8, D1 D8 q4w (Arm B), gMean, N=3, read-out: Cmax): 776 nM
Tmax (15 mg, Day 8, D1 D8 q4w (Arm B), median, N=3, read-out: tmax): 4 h
Cmax (20 mg, Arm A D1 q3w, 20 mg, N=2, read-out: Cmax (gMean)): 1160 nM
Tmax (20 mg, Arm A D1 q3w, 20 mg, N=2, read-out: tmax (median)): 5.5 h
AUC(0-inf) (20 mg, Day 1, D1 D8 q4w (Arm B), gMean, N=3, read-out: AUC0-∞): 88.9 µM·h
Cmax (20 mg, Day 1, D1 D8 q4w (Arm B), gMean, N=3, read-out: Cmax): 1370 nM
Vd/F (20 mg, Day 1, D1 D8 q4w (Arm B), gMean, N=3, read-out: Vz/F): 27.7 L
half-life (20 mg, Day 1, D1 D8 q4w (Arm B), gMean, N=3, read-out: t1/2 (converted)): 50.5 h
Tmax (20 mg, Day 1, D1 D8 q4w (Arm B), median, N=3, read-out: tmax): 4 h
AUC(0-inf) (20 mg, Day 8, D1 D8 q4w (Arm B), gMean, N=3, read-out: AUC0-∞): 61.1 µM·h
Cmax (20 mg, Day 8, D1 D8 q4w (Arm B), gMean, N=3, read-out: Cmax): 1220 nM
Vd/F (20 mg, Day 8, D1 D8 q4w (Arm B), gMean, N=3, read-out: Vz/F): 30.5 L
half-life (20 mg, Day 8, D1 D8 q4w (Arm B), gMean, N=3, read-out: t1/2 (converted)): 38.2 h
Tmax (20 mg, Day 8, D1 D8 q4w (Arm B), median, N=3, read-out: tmax): 3 h
AUC(0-inf) (30 mg, Arm A D1 q3w, 30 mg, N=3, read-out: AUC0-∞, gMean (gCV [%])): 113 µM·h
Cmax (30 mg, Arm A D1 q3w, 30 mg, N=3, read-out: Cmax (gMean)): 2890 nM
Vd/F (30 mg, Arm A D1 q3w, 30 mg, N=3, read-out: Vz/F, gMean (gCV [%])): 23.6 L
Tmax (30 mg, Arm A D1 q3w, 30 mg, N=3, read-out: tmax (median)): 4 h
AUC(0-inf) (30 mg, Day 1, D1 D8 q4w (Arm B), gMean, N=4, read-out: AUC0-∞): 79.9 µM·h
Cmax (30 mg, Day 1, D1 D8 q4w (Arm B), gMean, N=4, read-out: Cmax): 1440 nM
Vd/F (30 mg, Day 1, D1 D8 q4w (Arm B), gMean, N=4, read-out: Vz/F): 33.1 L
half-life (30 mg, Day 1, D1 D8 q4w (Arm B), gMean, N=4, read-out: t1/2 (converted)): 36.2 h
Tmax (30 mg, Day 1, D1 D8 q4w (Arm B), median, N=4, read-out: tmax): 4.5 h
AUC(0-inf) (30 mg, Day 8, D1 D8 q4w (Arm B), gMean, N=3, read-out: AUC0-∞): 64.8 µM·h
Cmax (30 mg, Day 8, D1 D8 q4w (Arm B), gMean, N=3, read-out: Cmax): 1330 nM
Vd/F (30 mg, Day 8, D1 D8 q4w (Arm B), gMean, N=3, read-out: Vz/F): 44.6 L
half-life (30 mg, Day 8, D1 D8 q4w (Arm B), gMean, N=3, read-out: t1/2 (converted)): 39.5 h
Tmax (30 mg, Day 8, D1 D8 q4w (Arm B), median, N=3, read-out: tmax): 4 h
AUC(0-inf) (45 mg, Arm A D1 q3w, 45 mg, N=6, read-out: AUC0-∞, gMean (gCV [%])): 137 µM·h
Cmax (45 mg, Arm A D1 q3w, 45 mg, N=6, read-out: Cmax (gMean)): 2710 nM
Vd/F (45 mg, Arm A D1 q3w, 45 mg, N=6, read-out: Vz/F, gMean (gCV [%])): 35.1 L
half-life (45 mg, Arm A D1 q3w, 45 mg, N=6, read-out: t1/2 (gMean) (converted)): 43.7 h
Tmax (45 mg, Arm A D1 q3w, 45 mg, N=6, read-out: tmax (median)): 4 h
AUC(0-inf) (45 mg, Day 1, D1 D8 q4w (Arm B), gMean, N=2, read-out: AUC0-∞): 96.9 µM·h
Cmax (45 mg, Day 1, D1 D8 q4w (Arm B), gMean, N=2, read-out: Cmax): 2330 nM
Vd/F (45 mg, Day 1, D1 D8 q4w (Arm B), gMean, N=2, read-out: Vz/F): 34 L
half-life (45 mg, Day 1, D1 D8 q4w (Arm B), gMean, N=2, read-out: t1/2 (converted)): 30 h
Tmax (45 mg, Day 1, D1 D8 q4w (Arm B), median, N=2, read-out: tmax): 4 h
AUC(0-inf) (50 mg, Arm A D1 q3w, 50 mg, N=4, read-out: AUC0-∞, gMean (gCV [%])): 314 µM·h
Cmax (50 mg, Arm A D1 q3w, 50 mg, N=4, read-out: Cmax (gMean)): 3740 nM
Vd/F (50 mg, Arm A D1 q3w, 50 mg, N=4, read-out: Vz/F, gMean (gCV [%])): 23.7 L
half-life (50 mg, Arm A D1 q3w, 50 mg, N=4, read-out: t1/2 (gMean) (converted)): 60.9 h
Tmax (50 mg, Arm A D1 q3w, 50 mg, N=4, read-out: tmax (median)): 5.5 h
AUC(0-inf) (60 mg, Arm A D1 q3w, 60 mg, N=6, read-out: AUC0-∞, gMean (gCV [%])): 163 µM·h
Vd/F (60 mg, Arm A D1 q3w, 60 mg, N=6, read-out: Vz/F, gMean (gCV [%])): 31.4 L
half-life (60 mg, Arm A D1 q3w, 60 mg, N=6, read-out: t1/2 (gMean) (converted)): 34.9 h
Cmax (60 mg, Arm A D1 q3w, 60 mg, N=7, read-out: Cmax (gMean)): 3270 nM
Tmax (60 mg, Arm A D1 q3w, 60 mg, N=7, read-out: tmax (median)): 5 h
AUC(0-inf) (60 mg, Day 1, D1 D8 q4w (Arm B), gMean, N=2, read-out: AUC0-∞): 87.7 µM·h
Cmax (60 mg, Day 1, D1 D8 q4w (Arm B), gMean, N=2, read-out: Cmax): 1960 nM
Vd/F (60 mg, Day 1, D1 D8 q4w (Arm B), gMean, N=2, read-out: Vz/F): 57 L
half-life (60 mg, Day 1, D1 D8 q4w (Arm B), gMean, N=2, read-out: t1/2 (converted)): 34.2 h
Tmax (60 mg, Day 1, D1 D8 q4w (Arm B), median, N=2, read-out: tmax): 6 h
Cmax (60 mg, Day 8, D1 D8 q4w (Arm B), gMean, N=2, read-out: Cmax): 1890 nM
Tmax (60 mg, Day 8, D1 D8 q4w (Arm B), median, N=2, read-out: tmax): 16 h
AUC(0-inf) (80 mg, Arm A D1 q3w, 80 mg, N=2, read-out: AUC0-∞, gMean (gCV [%])): 205 µM·h
Cmax (80 mg, Arm A D1 q3w, 80 mg, N=2, read-out: Cmax (gMean)): 3930 nM
Vd/F (80 mg, Arm A D1 q3w, 80 mg, N=2, read-out: Vz/F, gMean (gCV [%])): 26.5 L
half-life (80 mg, Arm A D1 q3w, 80 mg, N=2, read-out: t1/2 (gMean) (converted)): 27.9 h
Tmax (80 mg, Arm A D1 q3w, 80 mg, N=2, read-out: tmax (median)): 3.5 h
Tmax (after tablet intake, across dose groups, read-out: tmax): 4 to 6 h
half-life (range across dose groups, read-out: half-life): 27.9 to 60.9 h
half-life (Arm A D1 q3w, 30 mg, N=3, read-out: t1/2 (gMean) (converted)): 36.4 h
clearance (humans, preliminary PK data): low clearance
dose levels at which exposure (Cmax and AUC0-inf) is above predicted therapeutic exposures (humans, preliminary PK data): ≥ 15 mg
volume of distribution (humans, preliminary PK data): very low volume of distribution

From patent US20230058171A1, “NEW ORAL PHARMACEUTICAL COMPOSITION FOR CANCER THERAPY” (BOEHRINGER INGELHEIM INTERNATIONAL GMBH, priority 2021, published 2023)
